Assay results as given in PMC2965657, “Antioxidant Biomarkers from Vanda coerulea Stems Reduce Irradiated HaCaT PGE-2 Production as a Result of COX-2 Inhibition” (PLoS ONE, 2010).
Read-outs that look alike come from different tables or passages of the source.

Columns and labels:
[1] = DPPH radical scavenging (DPPH discolouration); conditions: mean ± sd; half-maximal neutralization of radical DPPH
Protocol: (§1) All in vitro radical-scavenging experiments (DPPH, ^•OH/luminol chemiluminescence) and IC50 calculations were assayed as previously described by Parejo et al. Results were expressed as percentage inhibition of DPPH discolouration and luminol chemiluminescence reduction, respectively. The concentration effect (logarithmic curve) obtained for each compound was used to calculate IC50. Serial dilutions of 1–5, and quercetin (used as standard reference) were prepared in MeOH.

[2] = •OH radical scavenging (luminol chemiluminescence); conditions: mean ± sd
Protocol: as §1

[3] = test system: H2O2 stressed HaCaT cells; assay: Intracellular ROS neutralization with DCFH-DA probe in H2O2 stressed HaCaT; type: cell-based; conditions: Homo sapiens, H2O2 100 µM, mean ± sd
Protocol: (§2) For measurement of reactive oxygen species neutralization and PGE-2 quantification with Vanda coerulea stem biomarkers, HaCaT cells were seeded in black 96-well microplates (Greiner Bio One 655090) at a concentration of 10^3 cells/well in complemented KSFM with 5% FBS. Microplates were incubated during 24 h (37°C, 5% CO2) before UVB irradiation at 60 mJ/cm^2 and treatment. For western blot analysis HaCaT cells were seeded at a density of 10^6 cells/ 100 mm dishes and incubated during 48 h before irradiation with UVB at 60 mJ/cm^2 (UV Lamp, VL-6LM, Vilber Lourmat) and treatment. All experiments were performed at 90% cell confluency. Cell viability was previously evaluated thanks to XTT analysis according to Roehm NW et al. Serial dilutions of 1–3, were prepared in DMSO (0.1% v/v final concentration). The first higher concentration tested was not cytotoxic (data not shown).
The DCFH-DA method was used to detect the levels of intracellular ROS [32] DCFH-DA diffuses into cells, where it is hydrolyzed by intracellular esterase to polar 2′,7′-dichlorodihydrofluorescein. This non-fluorescent fluorescein analog is oxidized by intracellular oxidants to a highly fluorescent, 2′,7′-dichlorofluorescein. Tocopherol [Sigma] (25 µM) was used as a positive reference. HaCaT cells were seeded as described and treated with serial dilutions of 1–3 and quercetin (standard reference) after 24 h incubation. Treated microplates were further incubated during 24 h (37°C, 5% CO2). HaCaT cells were washed with phosphate buffer saline (PBS), and DCFH-DA (0.05 mM) was added to the cells. 45 min after incubation, cells were stimulated by a H2O2 solution (100 µM in PBS) to generate an oxidative stress. Immediately after F(T0) and 40 min after stimulation F(T40), DCFH fluorescence was detected at an excitation wavelength of 485 nm and an emission wavelength of 535 nm, using a SpectraFluor Plus spectrofluorometer (Tecan). Two kinds of assay controls were used: negative control was non-stimulated cells and positive control was H2O2 stressed cells (DMSO 0.1% v/v). Results were expressed in percentage of fluorescence inhibition (% of ROS neutralization) calculated by comparison with H2O2 stimulated cells.
(% of ROS neutralization) = [1- [F(T40)-F(T0)] sample/[F(T40)-F(T0)] positive control] ×100.
Inhibition percentages were plotted according to compounds 1–3 and quercetin concentrations. Logarithmic regression analysis of the mean replicate values was used to calculate IC50 (Concentration causing half-maximal neutralization of ROS on H2O2 stressed HaCaT)

[4] = test system: UVB (60 mJ/cm^2) irradiated HaCaT keratinocytes; assay: PGE-2 production by UVB irradiated HaCaT (EIA); type: cell-based, human; conditions: for IC50: read-out: IC50 inhibition of HaCaT PGE-2 production
Protocol: as §2
Indomethacin (2.79 µM), a non-steroidal COX inhibitor, was used as a positive reference. Treated microplates were incubated at 37°C, 5% CO2. Untreated irradiated and non irradiated cells (DMSO 0.1% v/v final) were respectively used as positive and negative controls. After 24 h, supernatants were harvested for PGE-2 concentration measurement and BCA assay was realized to determine total cellular protein in each well. PGE-2 concentration was measured using the enzyme immunoassay Parameter™ PGE-2 kit (R&D Systems) according to the manufacturer's instructions. Each PGE-2 quantification (QPGE-2) was reported to total protein concentration per well.
Results were expressed as inhibition percentage of PGE-2 (I PGE-2) production compared with untreated irradiated cells (positive control).
I PGE-2 = 100- ((QPGE2) sample/ (QPGE2) positive control) ×100.
Inhibition percentages were plotted according to compounds 1–3 concentrations. Logarithmic regression analysis of the mean replicate values was used to calculate IC50 (Concentration causing half-maximal Inhibition of irradiated HaCaT PGE-2 production)

[5] = test system: COX-2 expression in irradiated HaCaT cells; assay: COX-2 expression by Western blot in UVB irradiated HaCaT; type: cell-based, human; conditions: 2.87 µM, 16 h, COX-2/β-actin vs UVB+
Protocol: as §2
After UVB irradiation 100 mm dishes were treated with stilbenoids 1–3 at 23 µM and 2.87 µM in a serum free medium and incubated during 16 h (37°C, 5% CO2). Untreated irradiated (UVB+) and non irradiated (UVB-) cells were used as positive and negative controls respectively. […] The protein concentration of each sample was determined using a Bradford assay. […] Results were expressed as fold decrease compared to the (UVB+) control. […]

human recombinant COX-2 = target: T1, human recombinant COX-2 (Homo sapiens, UniProt P35354); assay: COX-2 enzyme activity (PGE-2 formation from arachidonic acid); type: biochemical; conditions: for IC50: 2 µM arachidonic acid, mean ± sd, read-out: IC50 inhibition of COX-2 enzyme activity; for inhibition of COX-2 enzyme activity: up to 100 µM
T1 sequence (P35354 18-604): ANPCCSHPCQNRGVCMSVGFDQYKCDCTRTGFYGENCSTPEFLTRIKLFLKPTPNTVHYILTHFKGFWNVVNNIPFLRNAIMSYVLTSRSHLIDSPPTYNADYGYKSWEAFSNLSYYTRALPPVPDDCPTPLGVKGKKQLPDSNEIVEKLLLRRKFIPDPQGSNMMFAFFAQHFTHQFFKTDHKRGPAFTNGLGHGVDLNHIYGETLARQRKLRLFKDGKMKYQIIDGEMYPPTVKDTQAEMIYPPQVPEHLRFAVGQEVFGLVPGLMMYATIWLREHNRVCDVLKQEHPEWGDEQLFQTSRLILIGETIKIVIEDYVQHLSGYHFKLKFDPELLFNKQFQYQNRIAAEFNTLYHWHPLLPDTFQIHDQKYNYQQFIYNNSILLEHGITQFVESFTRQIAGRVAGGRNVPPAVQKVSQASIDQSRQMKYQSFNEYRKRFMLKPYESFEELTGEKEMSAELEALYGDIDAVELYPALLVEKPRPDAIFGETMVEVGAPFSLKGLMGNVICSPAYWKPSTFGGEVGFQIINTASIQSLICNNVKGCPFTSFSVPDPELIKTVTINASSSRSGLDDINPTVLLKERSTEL
Protocol: Serial dilutions of 1–3 were prepared in DMSO. Six concentrations were tested from 0.1 µM to 100 µM for imbricatin (1), from 0.03 to 100 µM for methoxycoelonin (2) and from 0.3 µM to 100 µM for gigantol (3).
Stilbenoids 1–3, indomethacin and water (negative control) were pre-incubated for 20 min at 22°C with the human recombinant COX-2 enzyme (0.2 µg) in buffer containing 100 mM Tris-HCl (pH 8.0), 2 mM phenol and 1 µM hematine. Thereafter, the reaction was initiated by addition of 2 µM arachidonic acid and the mixture was incubated for 5 min at 22°C. For basal control measurements, arachidonic acid was omitted from the medium. Indomethacin was used as positive inhibitory reference.
Following incubation, the reaction was stopped by the addition of 1 M HCl then 1 M Tris/HCl (pH 8.0) followed by cooling to 4°C. The amount of PGE-2 present in the reaction mixture was quantified using an EIA detection kit (Cayman Chemical).
The results were expressed as inhibition percentage of the control enzyme activity:
100–[(activity measured in the presence of the compound/control enzyme activity) ×100]
The IC50 values (concentration causing a half-maximal inhibition of control enzyme activity) and Hill coefficients (nH) were determined by non-linear regression analysis of the inhibition curves generated with mean replicate values using Hill equation curve fitting.

[6] = cited from earlier work
[7] = test system: irradiated (UVB 60 mJ/cm2) normal human epidermal keratinocytes (NHEK); assay: PGE-2 release from UVB irradiated normal human epidermal keratinocytes; type: cell-based; conditions: light or radiation study, vs UVB+ control, read-out: inhibition of PGE-2 production
Protocol: Supplementary file pone.0013713.s001.tif: Figure S1 Concentration-dependent effect of stilbenoids (1-3) on PGE-2 release from irradiated (UVB 60 mJ/cm2) normal human epidermal keratinocytes (NHEK). Histogram represents the quantity of PGE-2 produced (PGE-2/ total NHEK proteins pg/µg) according to different treatments. Untreated irradiated (UVB+) and non irradiated (UVB-) NHEK were used as positive and negative controls, respectively. […] Inhibition percentages of PGE-2 release were calculated by comparison with the positive control (UVB+). Values represen mean ± sds calculated with three independent experiments. Treatment groups were compared by using one way analysis of variance ANOVA post-hoc test. Student paired t test was used to compare each stilbenoid effect to the positive control. Statistical significance (*) was set at p<0.05. Significant differences were observed between each biomarker effect. IC50 were calculated with more points than those represented here on the graph. (0.82 MB TIF) Click here for additional data file.

[8] = Homo sapiens, light or radiation study, UVB 60 mJ/cm^2 irradiated HaCaT, 24 h, mean ± sd

Row | IC50 [1] | IC50 [2] | IC50 (human recombinant COX-2) | inhibition of COX-2 enzyme activity (human recombinant COX-2) | Compound | IC50 [3] | IC50 [4, 8] | other results
1 | 6.61 ± 1.07 µM | 0.076 ± 0.014 µM |  |  | Oc1cc2c3c(c1)COc1cc(O)cc(c1-3)CC2 [Flavidin (4), Flavidin] |  |  | 
2 | 14 ± 1.69 µM | 0.157 ± 0.039 µM | ≥ 100 µM | did not display significant inhibition | COc1cc(O)cc(CCc2ccc(O)c(OC)c2)c1 [Gigantol (3), Gigantol] | 20.6 ± 0.5 µM |  | inhibition of PGE-2 production ([4]; 2.87 µM, UVB irradiated HaCaT): strong inhibition; fold stronger inhibition of PGE-2 production on human HaCaT than on murine macrophage RAW 264.7 ([4]; HaCaT (this work) versus RAW 264.7 (ref 38)): 16 fold; IC50 inhibition of HaCaT PGE-2 production ([4]; UVB 60 mJ/cm^2 irradiated HaCaT, 24 h, mean ± sd): No concentration-dependanteffect; effect on UVB-induced COX-2 expression [5]: did not inhibit; IC50 ([6]; Zhang X et al): 56.4 µM
3 | 8.37 ± 0.61 µM | 0.034 ± 0.011 µM | 12 ± 1.2 µM | inhibited significantly | COc1c(O)cc2c3c1COc1cc(O)cc(c1-3)CC2 [Imbricatin (1), Imbricatin] | 8.8 ± 1.7 µM | 12.2 ± 2.9 µM | IC50 ([6]; Guo XY et al): 8.8 µM
4 |  |  |  |  | COc1ccc2c(c1)c(CC(=O)O)c(C)n2C(=O)c1ccc(Cl)cc1 [Indomethacin, reference compound] |  | 2.7 ± 0.7 µM | inhibition at 2.79 µM ([4]; Homo sapiens, light or radiation study, 2.79 µM, UVB irradiated HaCaT, vs UVB+ control): 54%; inhibition at 2.79 µM [7]: 86%
5 | 9.01 ± 0.93 µM | 0.035 ± 0.008 µM | 5.8 ± 1.2 µM | inhibited significantly | COc1cc2c(cc1O)CCc1cc(O)cc(OC)c1-2 [Methoxycoelonin (2), Methoxycoelonin] | 9.4 ± 2.1 µM | 19.3 ± 3.8 µM | 
6 | 2.42 ± 0.65 µM | 0.045 ± 0.012 µM |  |  | O=c1c(O)c(-c2ccc(O)c(O)c2)oc2cc(O)cc(O)c12 [Quercetin, reference compound] | 13.8 ± 2.2 µM |  | 
7 | 8.47 ± 1.58 µM | 0.079 ± 0.018 µM |  |  | Coelonin [Coelonin (5)] |  |  | IC50 ([6]; Wang J et al): 16.7 µM
